Entries after “also recorded” stand apart in the source; their conditions may differ. Where two headings read alike, the source gives them in different places.
Experiments:
HSV-1 [1] = format: cell-based, HSV-1 KOS strain
HSV-2 [2] = assay: RT-qPCR of HSV-2 glycoprotein B RNA in infected mouse primary neurons; format: cell-based, HSV-2 333 strain; conditions: 0.5 μM, 2 h pre-treatment, MOI 2, 72 h, versus DMSO control
Description: (§1) The isolated mouse primary-neurons were pre-treated with ML228 and DMSO at a concentration of 0.5 μM for 2 hours and were infected with HSV-1, at a MOI of 3 and HSV-2, at a MOI of 2. After 4 hours infection, the virus was removed and the cells were incubated with ML228 and DMSO for 72 hours. After 72 hours, the supernatant was used for virus plaque assay and the cells were lysed for RNA-extraction and RT-qPCRt.
(§2) The RT-qPCR results were obtained by total RNA extraction using the High Pure RNA Isolation kit (Roche) according to the manufacturer's instructions. RNA quality and concentration was assessed using Nanodrop spectrometry (Thermo Fisher). Viral replication was analysed by measuring RNA level against HSV-(1/2) Glycoprotein B (gB) using Brilliant III Ultra-Fast SYBR Green QRT-PCR Master Mix kit (Agilent Technology). CT values were normalized versus 18srRNA (ACT) in HSV-(1/2) infection.

IRF1 gene expression = assay: RNA-sequencing of IRF1 gene expression in SH-Sy5y cells upon ML228 treatment; format: cell-based, human; conditions: SH-Sy5y cells treated with AAVS1 sgRNA, ML228 0.5 μM for 8 h versus DMSO control
HSV-2 [3] = assay: virus plaque assay of supernatant from HSV-2 infected mouse primary neurons; format: cell-based, HSV-2 333 strain; conditions: 0.5 μM, 2 h pre-treatment, MOI 2, 72 h, versus DMSO control
Description: as §1
(§3) Supernatants collected from mouse primary neurons treated with ML228 and DMSO and infected with HSV-1 and HSV-2, were used for virus titer in a virus plaque assay. For this purpose, Vero cells at a density of 1.2×10^6 cells/petri dish, in DMEM were seeded and left overnight in order to settle and to form a monolayer. The next day, cells were infected with 100 μL of supernatant in appropriate serial dilutions. The cells were incubated for 1 hour at 37° C. Subsequently, 5 ml DMEM supplemented with 0.2% normal human immunoglobin (Octapharma) were added to the cells. The plates were incubated for 2-3 days at 37° C. and stained with 0.03% methyl blue. The plaques were counted and the results were represented as PFU (plaque-forming units) per sample.

Influenza A virus = assay: RT-qPCR of Influenza A virus matrix 2 (M2) RNA in infected SH-SY5Y cells; format: cell-based, Influenza virus A (H1N1) strain PR8; conditions: 1 μM, 2 h pre-treatment, MOI 0.1, 48 h, versus DMSO control
HSV-2 [4] = format: cell-based, HSV-2 333 strain
EMCV = format: cell-based, FA strain EMCV
HSV-1 [5] = format: cell-based, HSV-1 KOS strain; remark: listed apart in the source
HSV-1 [6] = assay: RT-qPCR of HSV-1 glycoprotein B RNA in infected mouse primary neurons; format: cell-based, HSV-1 KOS strain; conditions: 0.5 μM, 2 h pre-treatment, MOI 3, 72 h, versus DMSO control
Description: as §1, §2

VSV = format: cell-based, Indiana strain VSV; conditions: SH-SY5Y cells, 0.5 μM, 2 h pre-treatment, MOI 0.001, 18 h; versus DMSO control
HSV-2 [7] = format: cell-based, HSV-2 333 strain; remark: listed apart in the source
HSV-1 [8] = assay: virus plaque assay of supernatant from HSV-1 infected mouse primary neurons; format: cell-based, HSV-1 KOS strain; conditions: 0.5 μM, 2 h pre-treatment, MOI 3, 72 h, versus DMSO control
Description: as §1, §3

c1ccc(-c2ccc(CNc3nc(-c4ccccn4)nnc3-c3ccccc3)cc2)cc1 [ML228]
number of plaque forming units (PFU) in titer, HSV-1 (HSV-1 [1]): completely counteract the virus infection; also recorded: significantly decreased | HSV-2 replication (virus gB RNA level) (HSV-2 [2]): severely inhibited; also recorded: significantly decreased | IRF1 gene expression, log 2 fold change (IRF1 gene expression): 0.6842 | number of plaque forming units (PFU) in titer, HSV-2 (HSV-2 [3]): significantly less plaque-forming units; also recorded: significantly decreased | Influenza A virus replication (virus M2 RNA level) (Influenza A virus): also reduced; also recorded: significantly decreased | HSV-2 replication (virus gB RNA level) (HSV-2 [4]): significantly decreased | EMCV titer / virus cytopathic effect (TCID50%) (EMCV): significantly decreased | HSV-1 replication (virus gB RNA level) (HSV-1 [5]): significantly decreased | HSV-1 replication (virus gB RNA level) (HSV-1 [6]): reduction of the viral replication; also recorded: significantly decreased | VSV titer / virus cytopathic effect (TCID50%) (VSV): significantly reduces the virus cytopathic effect; also recorded: significantly decreased | number of plaque forming units (PFU) in titer, HSV-2 (HSV-2 [7]): completely counteract the virus infection; also recorded: significantly decreased | number of plaque forming units (PFU) in titer, HSV-1 (HSV-1 [8]): significantly reduced; also recorded: significantly decreased
